Assay results published in the supplement of paper PMC11061612.

Columns and labels:
Experiment in all cases: combination Emax (second highest fraction inhibited in the dose matrix, 72 h); higher = more inhibition; extreme values may be limits of the assay
[1] = system: AMO-1 (Plasma Cell Myeloma)
In short: (§1)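 Cell lines in DMEM/F12 or RPMI with 10% FBS were plated in 1536-well plates, held 24 hours at 37°C, 5% CO2, then given two-drug dose matrices for 72 hours (DMSO typically 0.2%). Viability was read by CellTiter-Glo 2.0 luminescence and scaled as inhibition from 0 (vehicle wells) to 1 (blank wells). Combination Emax is the second-highest inhibition in the matrix; Bliss excess is observed combination effect minus expected EA + EB − EA·EB, EA and EB being single-agent effects.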

[2] = system: C-4-I (Cervical Carcinoma)
In short: as §1

EW-24 (Ewing's Sarcoma) = system: EW-24 (Ewing's Sarcoma)
In short: as §1

[3] = system: EoL-1-cell (Acute Myeloid Leukemia)
In short: as §1

[4] = system: HSC-4 (Oral Cavity Carcinoma)
In short: as §1

[5] = system: Hs-766T (Pancreatic Carcinoma)
In short: as §1

[6] = system: KARPAS-299 (T-Cell Non-Hodgkin's Lymphoma)
In short: as §1

[7] = system: KMOE-2 (Acute Myeloid Leukemia)
In short: as §1

[8] = system: KYSE-450 (Esophageal Squamous Cell Carcinoma)
In short: as §1

[9] = system: LU-65 (Non-Small Cell Lung Carcinoma)
In short: as §1

[10] = system: NCI-H1915 (Non-Small Cell Lung Carcinoma)
In short: as §1

[11] = system: NCI-H358 (Lung Adenocarcinoma)
In short: as §1

[12] = system: NEC8 (Other Solid Carcinomas)
In short: as §1

[13] = system: NUGC-3 (Gastric Carcinoma)
In short: as §1

PWR-1E (Non-Cancerous) = system: PWR-1E (Non-Cancerous)
In short: as §1

[14] = system: SCC-15 (Oral Cavity Carcinoma)
In short: as §1

[15] = system: SW13 (Other Solid Carcinomas)
In short: as §1

[16] = system: TE-1 (Esophageal Squamous Cell Carcinoma)
In short: as §1

UACC-62 (Melanoma) = system: UACC-62 (Melanoma)
In short: as §1

[17] = system: VA-ES-BJ (Other Solid Carcinomas)
In short: as §1

Structure (SMILES) | combination Emax [1] | combination Emax [2] | combination Emax (EW-24 (Ewing's Sarcoma)) | combination Emax [3] | combination Emax [4] | combination Emax [5] | combination Emax [6] | combination Emax [7] | combination Emax [8] | combination Emax [9] | combination Emax [10] | combination Emax [11] | combination Emax [12] | combination Emax [13] | combination Emax (PWR-1E (Non-Cancerous)) | combination Emax [14] | combination Emax [15] | combination Emax [16] | combination Emax (UACC-62 (Melanoma)) | combination Emax [17]
COc1nnc2ccc(N3CCC(c4ccc(OCCN5CCN(C)C(=O)[C@H]5C)cc4)CC3)nn12 [AZD5153] + CC1(C)CCC(CN2CCN(c3ccc(C(=O)NS(=O)(=O)c4ccc(NCC5CCOCC5)c([N+](=O)[O-])c4)c(Oc4cnc5[nH]ccc5c4)c3)CC2)=C(c2ccc(Cl)cc2)C1 [Venetoclax] (first compound max 1 µM, 7x7, partner max 1 µM) | 0.907 | 0.514 | 0.498 | 1 | 0.0567 | 0.444 | 0.781 | 0.847 | 0.332 | 0.458 | 0.432 | 0.345 | 0.831 | 0.464 | 0.61 | 0.335 | 0.384 | 0.4 | 0.605 | 0.5
CC(=O)c1c(C)c2cnc(Nc3ccc(N4CCNCC4)cn3)nc2n(C2CCCC2)c1=O [Palbociclib] + CC1(C)CCC(CN2CCN(c3ccc(C(=O)NS(=O)(=O)c4ccc(NCC5CCOCC5)c([N+](=O)[O-])c4)c(Oc4cnc5[nH]ccc5c4)c3)CC2)=C(c2ccc(Cl)cc2)C1 [Venetoclax] (first compound max 10 µM, 7x7, partner max 1 µM) | 0.273 | 0.0751 | 0.432 | 0.994 | 0.121 | 0.149 | 0.495 | 0.215 | 0.126 | 0.117 | 0.466 | 0.337 | 0.0159 | 0.339 | 0.149 | 0.0783 | 0.24 | 0.179 | 0.0969 | 0.257
CC1(C)CCC(CN2CCN(c3ccc(C(=O)NS(=O)(=O)c4ccc(NCC5CCOCC5)c([N+](=O)[O-])c4)c(Oc4cnc5[nH]ccc5c4)c3)CC2)=C(c2ccc(Cl)cc2)C1 [Venetoclax] + C1CN(CCC1(C(=O)N[C@@H](CCO)C2=CC=C(C=C2)Cl)N)C3=NC=NC4=C3C=CN4 [Capivasertib] (first compound max 1 µM, 7x7, partner max 3 µM) | 0.76 | 0.235 | 0.395 | 1 | 0.306 | 0.225 | 0.837 | 0.581 | 0.197 | 0.462 | 0.141 | 0.33 | 0.174 | 0.227 | 0.203 | 0.226 | 0.254 | 0.162 | 0.392 | 0.264
NC1(C(=O)N[C@@H](CCO)c2ccc(Cl)cc2)CCN(c2ncnc3[nH]ccc23)CC1 [Capivasertib] + COc1nnc2ccc(N3CCC(c4ccc(OCCN5CCN(C)C(=O)[C@H]5C)cc4)CC3)nn12 [AZD5153] (first compound max 10 µM, 7x7, partner max 1 µM) | 0.911 | 0.749 | 0.756 | 1 | 0.529 | 0.457 | 0.741 | 0.831 | 0.324 | 0.536 | 0.588 | 0.585 | 0.951 | 0.617 | 0.861 | 0.508 | 0.389 | 0.485 | 0.56 | 0.487
CS(=O)(=O)CCNCc1ccc(-c2ccc3ncnc(Nc4ccc(OCc5cccc(F)c5)c(Cl)c4)c3c2)o1 [Lapatinib] + NC1(c2ccc(-c3nc4ccn5c(=O)[nH]nc5c4cc3-c3ccccc3)cc2)CCC1 [MK-2206] (first compound max 10 µM, 7x7, partner max 10 µM) | 0.963 | – | 0.925 | 0.973 | 0.42 | 0.303 | 0.926 | – | 0.602 | 0.649 | – | 0.631 | – | 0.91 | 0.836 | – | 0.902 | – | 0.516 | –
C=CCn1c(=O)c2cnc(Nc3ccc(N4CCN(C)CC4)cc3)nc2n1-c1cccc(C(C)(C)O)n1 [AZD1775] + C1CN(CCC1(C(=O)N[C@@H](CCO)C2=CC=C(C=C2)Cl)N)C3=NC=NC4=C3C=CN4 [Capivasertib] (first compound max 3 µM, partner max 3 µM) | 0.945 | 0.97 | 0.503 | 1 | 0.629 | 0.325 | 0.947 | 0.938 | 0.843 | 0.815 | 0.657 | 0.663 | 0.985 | 0.715 | 0.988 | 0.676 | 0.586 | 0.732 | 0.458 | 0.645
NC1(C(=O)N[C@@H](CCO)c2ccc(Cl)cc2)CCN(c2ncnc3[nH]ccc23)CC1 [Capivasertib] + CC(=O)c1c(C)c2cnc(Nc3ccc(N4CCNCC4)cn3)nc2n(C2CCCC2)c1=O [Palbociclib] (first compound max 10 µM, 7x7, partner max 10 µM) | 0.743 | 0.519 | 0.495 | 0.858 | 0.423 | 0.36 | 0.479 | 0.541 | 0.351 | 0.448 | 0.491 | 0.436 | 0.187 | 0.592 | 0.535 | 0.35 | 0.261 | 0.204 | 0.492 | 0.458
CS(=O)(=O)CCNCc1ccc(-c2ccc3ncnc(Nc4ccc(OCc5cccc(F)c5)c(Cl)c4)c3c2)o1 [Lapatinib] + C[C@@H](Oc1cc(-c2cnn(C3CCNCC3)c2)cnc1N)c1c(Cl)ccc(F)c1Cl [Crizotinib] (first compound max 10 µM, 7x7, partner max 10 µM) | 0.958 | 0.943 | 0.9 | 0.988 | 0.465 | 0.319 | 0.978 | 0.911 | 0.869 | 0.894 | 0.65 | 0.926 | 0.862 | 0.96 | 0.928 | 0.944 | 0.9 | 0.919 | 0.66 | 0.756
CCc1c2c(nc3ccc(O)cc13)-c1cc3c(c(=O)n1C2)COC(=O)[C@]3(O)CC [SN-38] + O=C(c1cc(Cc2n[nH]c(=O)c3ccccc23)ccc1F)N1CCN(C(=O)C2CC2)CC1 [Olaparib] (first compound max 0.3 µM, 7x7, partner max 10 µM) | 0.952 | 0.928 | 0.821 | 0.99 | – | 0.415 | 0.896 | 0.983 | 0.671 | 0.87 | – | 0.693 | 1 | – | – | – | 0.962 | – | 0.843 | 0.818
CC1(C)CCC(CN2CCN(c3ccc(C(=O)NS(=O)(=O)c4ccc(NCC5CCOCC5)c([N+](=O)[O-])c4)c(Oc4cnc5[nH]ccc5c4)c3)CC2)=C(c2ccc(Cl)cc2)C1 [Venetoclax] + Cn1cnc2c(F)c(Nc3ccc(Br)cc3Cl)c(C(=O)NOCCO)cc21 [Selumetinib] (first compound max 1 µM, 7x7, partner max 3 µM) | 0.806 | 0.385 | 0.154 | 1 | 0.243 | 0.502 | 0.812 | 0.992 | 0.109 | 0.538 | 0.423 | 0.343 | 0.104 | 0.392 | 0.0808 | 0.264 | 0.317 | 0.245 | 0.767 | 0.123
COc1nnc2ccc(N3CCC(c4ccc(OCCN5CCN(C)C(=O)[C@H]5C)cc4)CC3)nn12 [AZD5153] + C=CCn1c(=O)c2cnc(Nc3ccc(N4CCN(C)CC4)cc3)nc2n1-c1cccc(C(C)(C)O)n1 [AZD1775] (first compound max 1 µM, partner max 1 µM) | 0.978 | 0.838 | 0.609 | 1 | 0.397 | 0.448 | 0.919 | 0.971 | 0.519 | 0.799 | 0.678 | 0.63 | 0.913 | 0.715 | 0.886 | 0.435 | 0.561 | 0.591 | 0.577 | 0.724
Cn1cnc2c(F)c(Nc3ccc(Br)cc3Cl)c(C(=O)NOCCO)cc21 [Selumetinib] + CCN(CCO)CCCOc1ccc2c(Nc3cc(CC(=O)Nc4cccc(F)c4)[nH]n3)ncnc2c1 [AZD2811] (first compound max 10 µM, 7x7, partner max 1 µM) | 0.481 | 0.66 | 0.427 | 1 | 0.345 | 0.515 | 0.252 | 0.999 | 0.209 | 0.635 | 0.6 | 0.499 | 0.0754 | 0.551 | 0.579 | 0.36 | 0.615 | 0.49 | 0.815 | 0.327
